What was measured:
LIMK2 = LIMK2 (Homo sapiens, UniProt P53671); assay: biochemical; conditions: read-out: % enzyme activity, 1 μM; Run 1, Run 2
KSR1 = molecular target: T1, KSR1 (Homo sapiens, UniProt Q8IVT5); conditions: 1 μM; Run 1, Run 2
T1 sequence (Q8IVT5 1-923): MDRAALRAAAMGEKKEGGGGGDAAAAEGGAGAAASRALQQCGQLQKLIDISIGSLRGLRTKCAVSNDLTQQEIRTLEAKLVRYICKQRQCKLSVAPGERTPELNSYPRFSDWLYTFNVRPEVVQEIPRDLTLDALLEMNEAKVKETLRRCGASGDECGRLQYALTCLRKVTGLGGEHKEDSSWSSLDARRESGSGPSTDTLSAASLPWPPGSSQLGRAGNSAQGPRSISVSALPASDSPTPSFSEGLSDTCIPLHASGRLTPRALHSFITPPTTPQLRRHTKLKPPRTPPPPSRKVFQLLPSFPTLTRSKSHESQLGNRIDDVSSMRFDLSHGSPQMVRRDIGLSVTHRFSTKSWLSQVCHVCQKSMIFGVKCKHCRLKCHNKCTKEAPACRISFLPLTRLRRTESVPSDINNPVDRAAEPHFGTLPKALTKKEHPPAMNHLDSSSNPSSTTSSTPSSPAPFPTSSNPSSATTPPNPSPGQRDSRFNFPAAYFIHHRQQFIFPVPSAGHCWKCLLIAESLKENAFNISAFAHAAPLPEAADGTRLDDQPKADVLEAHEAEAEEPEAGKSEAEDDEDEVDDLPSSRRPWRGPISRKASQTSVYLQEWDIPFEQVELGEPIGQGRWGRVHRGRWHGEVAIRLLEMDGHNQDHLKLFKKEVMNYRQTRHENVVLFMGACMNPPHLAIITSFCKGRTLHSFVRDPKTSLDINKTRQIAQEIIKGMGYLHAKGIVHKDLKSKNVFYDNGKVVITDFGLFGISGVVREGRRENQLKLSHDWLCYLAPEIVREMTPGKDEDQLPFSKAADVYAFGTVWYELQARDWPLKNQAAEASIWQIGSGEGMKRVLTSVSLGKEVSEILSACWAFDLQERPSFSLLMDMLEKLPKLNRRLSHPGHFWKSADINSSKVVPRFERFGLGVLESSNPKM

PKCeta = PKCeta (Homo sapiens, UniProt P24723); assay: biochemical; conditions: read-out: % enzyme activity, 1 μM; Run 1, Run 2
FGFR3 = FGFR3 (Homo sapiens, UniProt P22607); conditions: 1 μM; Run 1, Run 2
MAPKAPK5/PRAK = molecular target: T2, MAPKAPK5/PRAK (Homo sapiens, UniProt Q8IW41); conditions: 1 μM; Run 1, Run 2
T2 sequence (Q8IW41 1-473): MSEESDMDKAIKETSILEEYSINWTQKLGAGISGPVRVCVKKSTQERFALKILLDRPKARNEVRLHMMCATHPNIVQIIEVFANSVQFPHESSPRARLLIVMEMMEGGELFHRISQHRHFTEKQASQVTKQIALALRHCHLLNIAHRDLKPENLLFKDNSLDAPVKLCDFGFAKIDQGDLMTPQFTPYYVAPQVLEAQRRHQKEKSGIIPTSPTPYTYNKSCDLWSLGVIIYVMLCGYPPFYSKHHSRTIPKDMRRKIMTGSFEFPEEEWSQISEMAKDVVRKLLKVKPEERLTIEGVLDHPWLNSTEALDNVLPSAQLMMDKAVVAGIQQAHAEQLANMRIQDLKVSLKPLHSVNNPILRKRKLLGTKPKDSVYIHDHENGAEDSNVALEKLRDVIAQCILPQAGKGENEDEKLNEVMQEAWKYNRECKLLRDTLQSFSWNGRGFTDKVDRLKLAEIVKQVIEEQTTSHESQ

NEK7 = NEK7 (Homo sapiens, UniProt Q8TDX7); assay: biochemical; conditions: read-out: % enzyme activity, 1 μM; Run 1, Run 2
CDK4/cyclin D1 = CDK4/cyclin D1 (Homo sapiens, UniProt P11802); conditions: 1 μM; Run 1, Run 2
CDK2/cyclin E = CDK2/cyclin E (Homo sapiens, UniProt P24941); assay: biochemical; conditions: read-out: % enzyme activity, 1 μM; Run 1, Run 2
PKD2/PRKD2 = molecular target: T3, PKD2/PRKD2 (Homo sapiens, UniProt Q9BZL6); conditions: 1 μM; Run 1, Run 2
T3 sequence (Q9BZL6 1-878): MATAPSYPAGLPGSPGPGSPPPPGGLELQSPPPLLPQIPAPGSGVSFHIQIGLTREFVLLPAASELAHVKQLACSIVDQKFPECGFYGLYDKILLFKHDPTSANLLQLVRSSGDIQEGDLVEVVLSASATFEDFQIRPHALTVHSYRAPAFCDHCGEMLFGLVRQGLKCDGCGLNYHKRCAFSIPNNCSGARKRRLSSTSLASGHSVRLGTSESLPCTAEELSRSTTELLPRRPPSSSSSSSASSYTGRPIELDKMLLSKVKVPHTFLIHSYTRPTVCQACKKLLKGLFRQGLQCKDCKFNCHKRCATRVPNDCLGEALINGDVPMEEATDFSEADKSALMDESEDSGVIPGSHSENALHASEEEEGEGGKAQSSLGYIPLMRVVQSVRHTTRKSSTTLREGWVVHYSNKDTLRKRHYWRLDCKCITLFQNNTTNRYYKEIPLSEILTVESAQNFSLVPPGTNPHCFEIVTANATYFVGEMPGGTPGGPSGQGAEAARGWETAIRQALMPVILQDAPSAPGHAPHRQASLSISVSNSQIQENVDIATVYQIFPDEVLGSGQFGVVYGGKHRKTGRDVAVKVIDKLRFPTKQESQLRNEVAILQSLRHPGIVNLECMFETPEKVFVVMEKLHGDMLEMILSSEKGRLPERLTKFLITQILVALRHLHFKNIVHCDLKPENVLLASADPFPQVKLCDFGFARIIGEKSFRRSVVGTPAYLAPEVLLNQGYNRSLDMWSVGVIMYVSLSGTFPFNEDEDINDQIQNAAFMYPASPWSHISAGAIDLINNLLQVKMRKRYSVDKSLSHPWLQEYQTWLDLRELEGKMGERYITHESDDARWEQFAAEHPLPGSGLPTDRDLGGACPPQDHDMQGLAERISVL

MEKK1 = MEKK1 (Homo sapiens, UniProt Q13233); conditions: 1 μM; Run 1, Run 2
CYP2C8 = molecular target: T4, CYP2C8 (Homo sapiens, UniProt P10632); assay: CYP inhibition assay; assay type: in vitro ADME; conditions: human liver microsomes
T4 construct: tissue Corning 452117; host or cells: pooled human liver microsomes (UltraPool HLM 150, mixed gender)

FRK/PTK5 = FRK/PTK5 (Homo sapiens, UniProt P42685); conditions: 1 μM; Run 1, Run 2
CK1G3 = CK1G3 (Homo sapiens, UniProt Q9Y6M4); conditions: 1 μM; Run 1, Run 2
CK1G3, sequence (Q9Y6M4 whole entry): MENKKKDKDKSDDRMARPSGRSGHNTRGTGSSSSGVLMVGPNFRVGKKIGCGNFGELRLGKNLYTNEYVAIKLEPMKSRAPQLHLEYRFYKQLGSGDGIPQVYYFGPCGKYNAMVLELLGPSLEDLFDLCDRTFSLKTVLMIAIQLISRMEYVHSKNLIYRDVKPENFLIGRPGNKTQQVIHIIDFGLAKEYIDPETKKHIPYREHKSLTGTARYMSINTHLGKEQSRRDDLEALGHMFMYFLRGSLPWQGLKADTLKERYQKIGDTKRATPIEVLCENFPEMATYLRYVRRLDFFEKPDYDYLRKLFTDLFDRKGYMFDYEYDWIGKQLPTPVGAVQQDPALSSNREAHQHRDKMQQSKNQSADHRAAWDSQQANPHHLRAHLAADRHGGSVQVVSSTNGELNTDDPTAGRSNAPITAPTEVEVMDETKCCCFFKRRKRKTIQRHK

FGFR3, sequence (P22607 23-806): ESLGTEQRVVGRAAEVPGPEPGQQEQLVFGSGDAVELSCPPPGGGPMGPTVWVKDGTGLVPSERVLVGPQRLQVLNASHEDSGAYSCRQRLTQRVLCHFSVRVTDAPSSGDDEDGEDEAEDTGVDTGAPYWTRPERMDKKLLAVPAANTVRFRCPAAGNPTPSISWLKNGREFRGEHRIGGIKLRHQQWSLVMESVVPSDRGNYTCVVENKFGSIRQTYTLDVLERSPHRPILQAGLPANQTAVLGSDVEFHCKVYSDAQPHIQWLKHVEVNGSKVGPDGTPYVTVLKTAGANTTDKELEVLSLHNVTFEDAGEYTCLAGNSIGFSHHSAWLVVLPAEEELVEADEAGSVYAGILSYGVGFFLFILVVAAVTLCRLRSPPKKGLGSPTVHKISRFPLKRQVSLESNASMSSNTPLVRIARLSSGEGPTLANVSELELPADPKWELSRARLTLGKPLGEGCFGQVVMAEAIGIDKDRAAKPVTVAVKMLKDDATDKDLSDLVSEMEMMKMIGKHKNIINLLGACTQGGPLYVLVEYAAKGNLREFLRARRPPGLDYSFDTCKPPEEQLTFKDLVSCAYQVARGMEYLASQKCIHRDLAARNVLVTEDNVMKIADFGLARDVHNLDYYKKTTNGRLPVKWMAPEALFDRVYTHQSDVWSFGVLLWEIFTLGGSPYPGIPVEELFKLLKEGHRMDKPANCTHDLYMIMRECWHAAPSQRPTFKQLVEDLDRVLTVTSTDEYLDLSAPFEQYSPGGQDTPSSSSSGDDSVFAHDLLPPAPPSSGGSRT
FRK/PTK5, sequence (P42685 whole entry): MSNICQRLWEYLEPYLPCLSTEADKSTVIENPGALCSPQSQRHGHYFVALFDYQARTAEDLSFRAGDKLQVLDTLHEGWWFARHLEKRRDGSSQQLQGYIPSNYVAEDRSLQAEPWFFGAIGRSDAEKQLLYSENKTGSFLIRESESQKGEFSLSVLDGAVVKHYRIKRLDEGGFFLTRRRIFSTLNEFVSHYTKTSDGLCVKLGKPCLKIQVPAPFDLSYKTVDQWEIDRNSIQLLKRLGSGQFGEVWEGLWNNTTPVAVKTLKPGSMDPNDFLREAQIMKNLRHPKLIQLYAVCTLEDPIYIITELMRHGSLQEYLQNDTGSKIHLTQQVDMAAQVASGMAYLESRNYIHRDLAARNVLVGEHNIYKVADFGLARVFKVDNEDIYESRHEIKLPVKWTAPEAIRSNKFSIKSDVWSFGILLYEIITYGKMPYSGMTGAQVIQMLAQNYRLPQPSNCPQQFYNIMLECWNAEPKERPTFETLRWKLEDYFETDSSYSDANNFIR
MEKK1, sequence (Q13233 whole entry): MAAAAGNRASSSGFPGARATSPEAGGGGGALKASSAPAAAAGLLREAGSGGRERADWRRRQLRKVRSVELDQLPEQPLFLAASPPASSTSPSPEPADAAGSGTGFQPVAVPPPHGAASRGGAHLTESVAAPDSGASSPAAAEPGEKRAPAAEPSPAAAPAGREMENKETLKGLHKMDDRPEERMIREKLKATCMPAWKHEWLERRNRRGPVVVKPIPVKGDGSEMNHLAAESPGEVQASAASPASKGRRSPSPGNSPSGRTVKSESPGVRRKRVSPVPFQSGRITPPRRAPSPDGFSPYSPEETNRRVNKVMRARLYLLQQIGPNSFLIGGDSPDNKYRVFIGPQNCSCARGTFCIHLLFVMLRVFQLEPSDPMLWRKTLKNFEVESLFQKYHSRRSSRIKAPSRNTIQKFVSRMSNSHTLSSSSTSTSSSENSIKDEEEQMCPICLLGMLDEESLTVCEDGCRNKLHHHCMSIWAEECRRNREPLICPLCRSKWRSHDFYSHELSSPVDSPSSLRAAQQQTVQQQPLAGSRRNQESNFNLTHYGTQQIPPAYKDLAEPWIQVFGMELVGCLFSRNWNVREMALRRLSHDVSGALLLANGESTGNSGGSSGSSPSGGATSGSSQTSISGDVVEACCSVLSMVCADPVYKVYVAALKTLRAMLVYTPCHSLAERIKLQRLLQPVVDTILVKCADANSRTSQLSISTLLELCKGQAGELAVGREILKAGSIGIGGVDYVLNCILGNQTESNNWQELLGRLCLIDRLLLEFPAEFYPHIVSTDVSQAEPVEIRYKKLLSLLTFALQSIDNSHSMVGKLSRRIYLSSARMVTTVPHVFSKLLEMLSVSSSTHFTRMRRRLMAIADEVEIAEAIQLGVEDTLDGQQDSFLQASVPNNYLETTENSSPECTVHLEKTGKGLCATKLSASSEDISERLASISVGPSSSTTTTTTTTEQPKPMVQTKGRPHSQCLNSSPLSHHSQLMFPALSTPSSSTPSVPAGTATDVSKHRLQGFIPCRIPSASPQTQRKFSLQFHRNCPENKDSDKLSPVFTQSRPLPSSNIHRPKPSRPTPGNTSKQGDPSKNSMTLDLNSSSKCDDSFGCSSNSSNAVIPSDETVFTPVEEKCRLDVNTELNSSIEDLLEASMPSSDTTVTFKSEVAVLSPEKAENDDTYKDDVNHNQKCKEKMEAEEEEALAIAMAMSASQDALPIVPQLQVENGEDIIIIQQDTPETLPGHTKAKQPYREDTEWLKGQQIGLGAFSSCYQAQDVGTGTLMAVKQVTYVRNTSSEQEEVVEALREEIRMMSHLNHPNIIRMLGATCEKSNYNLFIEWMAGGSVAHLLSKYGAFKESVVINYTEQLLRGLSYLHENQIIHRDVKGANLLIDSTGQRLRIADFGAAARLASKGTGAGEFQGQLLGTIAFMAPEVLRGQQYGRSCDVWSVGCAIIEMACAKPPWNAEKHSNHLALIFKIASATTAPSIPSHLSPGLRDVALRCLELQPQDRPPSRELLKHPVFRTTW
T4 sequence (P10632 whole entry): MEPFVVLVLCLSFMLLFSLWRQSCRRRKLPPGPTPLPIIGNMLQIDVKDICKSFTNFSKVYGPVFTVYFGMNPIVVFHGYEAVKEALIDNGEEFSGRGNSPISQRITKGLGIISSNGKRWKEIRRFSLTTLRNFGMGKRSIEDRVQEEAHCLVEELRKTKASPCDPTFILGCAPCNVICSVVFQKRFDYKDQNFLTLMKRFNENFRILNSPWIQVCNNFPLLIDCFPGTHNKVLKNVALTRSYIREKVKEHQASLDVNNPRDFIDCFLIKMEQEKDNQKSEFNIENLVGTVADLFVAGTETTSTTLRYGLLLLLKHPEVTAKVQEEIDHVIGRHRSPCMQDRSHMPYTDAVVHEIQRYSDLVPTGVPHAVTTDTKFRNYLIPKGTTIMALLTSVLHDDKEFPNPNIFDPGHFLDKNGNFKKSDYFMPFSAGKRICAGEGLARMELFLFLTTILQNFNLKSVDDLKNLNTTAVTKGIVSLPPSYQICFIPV
PKCeta, sequence (P24723 whole entry): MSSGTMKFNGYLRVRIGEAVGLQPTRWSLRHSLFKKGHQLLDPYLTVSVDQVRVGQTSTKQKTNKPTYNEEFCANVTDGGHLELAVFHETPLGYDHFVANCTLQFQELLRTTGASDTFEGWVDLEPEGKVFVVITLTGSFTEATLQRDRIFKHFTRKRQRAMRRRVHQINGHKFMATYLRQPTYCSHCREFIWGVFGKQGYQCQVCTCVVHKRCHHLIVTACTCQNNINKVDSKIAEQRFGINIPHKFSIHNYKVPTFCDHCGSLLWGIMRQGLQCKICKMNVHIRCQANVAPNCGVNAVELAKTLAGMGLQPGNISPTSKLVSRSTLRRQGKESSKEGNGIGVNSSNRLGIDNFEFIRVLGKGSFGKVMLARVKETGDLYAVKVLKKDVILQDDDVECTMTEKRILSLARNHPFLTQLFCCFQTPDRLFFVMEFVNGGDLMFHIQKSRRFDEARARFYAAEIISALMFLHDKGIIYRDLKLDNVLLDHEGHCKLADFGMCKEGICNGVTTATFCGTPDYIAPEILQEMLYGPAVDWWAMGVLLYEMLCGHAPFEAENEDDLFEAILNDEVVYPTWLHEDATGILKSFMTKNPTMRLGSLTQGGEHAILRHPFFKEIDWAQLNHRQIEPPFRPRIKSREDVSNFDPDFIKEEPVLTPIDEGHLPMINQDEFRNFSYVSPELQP
CDK4/cyclin D1, sequence (P11802 whole entry): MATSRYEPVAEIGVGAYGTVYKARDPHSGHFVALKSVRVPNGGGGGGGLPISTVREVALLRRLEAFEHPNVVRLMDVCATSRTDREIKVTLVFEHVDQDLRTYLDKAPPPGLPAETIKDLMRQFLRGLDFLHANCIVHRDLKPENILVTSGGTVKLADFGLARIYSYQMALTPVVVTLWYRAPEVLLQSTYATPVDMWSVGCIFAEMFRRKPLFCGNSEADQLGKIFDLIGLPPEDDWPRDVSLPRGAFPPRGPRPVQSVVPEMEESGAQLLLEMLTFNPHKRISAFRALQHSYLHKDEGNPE
CDK4/cyclin D1, sequence (P24385 whole entry partner): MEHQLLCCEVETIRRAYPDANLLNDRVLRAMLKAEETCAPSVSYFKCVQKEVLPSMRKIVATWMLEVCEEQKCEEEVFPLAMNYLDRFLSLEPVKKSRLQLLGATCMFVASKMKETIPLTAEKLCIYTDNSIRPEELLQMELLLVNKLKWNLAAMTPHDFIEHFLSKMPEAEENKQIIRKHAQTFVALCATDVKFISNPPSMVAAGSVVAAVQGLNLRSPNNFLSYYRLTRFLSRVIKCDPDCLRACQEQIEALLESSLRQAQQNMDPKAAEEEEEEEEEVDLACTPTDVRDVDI

Row | Compound | remaining activity at 1 µM (LIMK2) [%] | % enzyme activity (KSR1) [%] | remaining activity at 1 µM (PKCeta) [%] | % enzyme activity (FGFR3) [%] | % enzyme activity (MAPKAPK5/PRAK) [%] | remaining activity at 1 µM (NEK7) [%] | % enzyme activity (CDK4/cyclin D1) [%] | remaining activity at 1 µM (CDK2/cyclin E) [%] | % enzyme activity (PKD2/PRKD2) [%] | % enzyme activity (MEKK1) [%] | IC50 (CYP2C8) [µM] | % enzyme activity (FRK/PTK5) [%] | % enzyme activity (CK1G3) [%]
1 | COc1cc(-c2cncc(-c3ccc(N4CCN(C)CC4)cc3)c2C)cc(F)c1C(N)=O [Compound 26a, 2-Fluoro-6-methoxy-4-(4-methyl-5-(4-(4-methylpiperazin-1-yl)phenyl)pyridin-3-yl)benzamide] | 102 | 93.83 | 94.9 | 100.98 | 90.60 | 97.6 | 98.46 | 105 | 95.72 | 92.92 | > 50 | 95.48 | 64.87
2 | COc1cc(-c2cncc(-c3ccc(N4C[C@@H](C)N(C)[C@@H](C)C4)cc3)c2C)cc(F)c1C(N)=O [Compound 26c, 2-Fluoro-6-methoxy-4-(4-methyl-5-(4-((3R,5S)-3,4,5-trimethylpiperazin-1-yl)phenyl)pyridin-3-yl)benzamide] | 97.8 | 95.91 | 98.3 | 102.08 | 94.46 | 97.4 | 100.29 | 102 | 98.89 | 97.31 | > 50 | 95.52 | 77.64
